# Results taken from ChEMBL document CHEMBL1201862, “PubChem BioAssay data set” (2004).
#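 1) Cells in 96-well plates. 2) Compound, 48 h, 5 concentrations. 3) Linear interpolation between surrounding doses. 4) Unreached endpoint = highest concentration. Here, GI50 denotes the concentration required for 50% inhibition of growth.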 The source made the active and inactive calls. Cut-off read from the data, not from the text of the source: active = GI50 up to about 1.1 µM and inactive = higher.
# Tests used:
# Assay in all cases: NCI tumour cell line growth inhibition, 48 h
# TK-10 = test system: TK-10
# RPMI-8226 = test system: RPMI-8226
# HT-29 = test system: HT-29
# DU-145 = test system: DU-145
# SW-620 = test system: SW-620
# NCI-H23 = test system: NCI-H23
# IGROV-1 = test system: IGROV-1
# T47D = test system: T47D
# CCRF-CEM = test system: CCRF-CEM
# A549 = test system: A549
# SF-539 = test system: SF-539
# SK-MEL-2 = test system: SK-MEL-2
# HCT-15 = test system: HCT-15
# BT-549 = test system: BT-549
# OVCAR-4 = test system: OVCAR-4
# NCI-H522 = test system: NCI-H522
# UACC-257 = test system: UACC-257
# OVCAR-8 = test system: OVCAR-8
# MCF7 = test system: MCF7
# SF-268 = test system: SF-268
# HOP-62 = test system: HOP-62
# HCC 2998 = test system: HCC 2998
# MOLT-4 = test system: MOLT-4
# SK-OV-3 = test system: SK-OV-3
# SK-MEL-28 = test system: SK-MEL-28
# OVCAR-5 = test system: OVCAR-5
# EKVX = test system: EKVX
# HCT-116 = test system: HCT-116
# MDA-MB-231 = test system: MDA-MB-231
# HL-60 = test system: HL-60
# SK-MEL-5 = test system: SK-MEL-5
# LOX IMVI = test system: LOX IMVI
# SN12C = test system: SN12C
# Malme-3M = test system: Malme-3M
# ACHN = test system: ACHN
# COLO 205 = test system: COLO 205
# Hs-578T = test system: Hs-578T
# PC-3 = test system: PC-3
# HOP-92 = test system: HOP-92
# U-251 = test system: U-251
# UACC-62 = test system: UACC-62
# NCI-H226 = test system: NCI-H226
# SNB-19 = test system: SNB-19
# CAKI-1 = test system: CAKI-1
# 786-0 = test system: 786-0
# OVCAR-3 = test system: OVCAR-3
# NCI-H460 = test system: NCI-H460
# SNB-75 = test system: SNB-75
# A498 = test system: A498
# M14 = test system: M14
# NCI/ADR-RES = test system: NCI/ADR-RES
# SF-295 = test system: SF-295
# KM12 = test system: KM12
# MDA-MB-435 = test system: MDA-MB-435
# RXF 393 = test system: RXF 393
# SR = test system: SR
# UO-31 = test system: UO-31
# K562 = test system: K562
smiles,measurement,setting,value
Nc1nc(Nc2cc(F)c(Cl)c(F)c2)cc(=O)[nH]1,GI50,TK-10,> 100 µM (inactive)
same,GI50,RPMI-8226,56.4 µM (inactive)
same,GI50,HT-29,> 100 µM (inactive)
same,GI50,DU-145,> 100 µM (inactive)
same,GI50,SW-620,91 µM (inactive)
same,GI50,NCI-H23,95.9 µM (inactive)
same,GI50,IGROV-1,> 100 µM (inactive)
same,GI50,T47D,77.6 µM (inactive)
same,GI50,CCRF-CEM,66.8 µM (inactive)
same,GI50,A549,76.4 µM (inactive)
same,GI50,SF-539,> 100 µM (inactive)
same,GI50,SK-MEL-2,71.4 µM (inactive)
same,GI50,HCT-15,> 100 µM
same,GI50,BT-549,60.3 µM (inactive)
same,GI50,OVCAR-4,> 100 µM (inactive)
same,GI50,NCI-H522,28.4 µM (inactive)
same,GI50,UACC-257,> 100 µM (inactive)
same,GI50,OVCAR-8,> 100 µM (inactive)
same,GI50,MCF7,75.9 µM (inactive)
same,GI50,SF-268,74.5 µM (inactive)
same,GI50,HOP-62,> 100 µM (inactive)
same,GI50,HCC 2998,15.9 µM (inactive)
same,GI50,MOLT-4,55.6 µM (inactive)
same,GI50,SK-OV-3,68.1 µM (inactive)
same,GI50,SK-MEL-28,> 100 µM (inactive)
same,GI50,OVCAR-5,> 100 µM (inactive)
same,GI50,EKVX,61.1 µM (inactive)
same,GI50,HCT-116,74.3 µM (inactive)
same,GI50,MDA-MB-231,68.2 µM (inactive)
same,GI50,HL-60,44.3 µM (inactive)
same,GI50,SK-MEL-5,53.5 µM (inactive)
same,GI50,LOX IMVI,> 100 µM (inactive)
same,GI50,SN12C,> 100 µM (inactive)
same,GI50,Malme-3M,> 100 µM (inactive)
same,GI50,ACHN,84.7 µM (inactive)
same,GI50,COLO 205,> 100 µM (inactive)
same,GI50,Hs-578T,18.1 µM (inactive)
same,GI50,PC-3,> 100 µM (inactive)
same,GI50,HOP-92,77.3 µM (inactive)
same,GI50,U-251,81.7 µM (inactive)
same,GI50,UACC-62,68.9 µM (inactive)
same,GI50,NCI-H226,> 100 µM (inactive)
same,GI50,SNB-19,37 µM (inactive)
same,GI50,CAKI-1,> 100 µM (inactive)
same,GI50,786-0,76.4 µM (inactive)
same,GI50,OVCAR-3,> 100 µM (inactive)
same,GI50,NCI-H460,> 100 µM (inactive)
same,GI50,SNB-75,30.7 µM (inactive)
same,GI50,A498,94.8 µM (inactive)
same,GI50,M14,41.5 µM (inactive)
same,GI50,NCI/ADR-RES,> 100 µM (inactive)
same,GI50,SF-295,44.9 µM (inactive)
same,GI50,KM12,27 µM (inactive)
same,GI50,MDA-MB-435,44.4 µM (inactive)
O=C(NC1(C(=O)NNc2nnc(-c3ccccc3)c(-c3ccccc3)n2)C(c2ccccc2)C(c2ccccc2)=NN1c1ccccc1)c1ccccc1 (centres undefined),GI50,TK-10,> 100 µM (inactive)
same,GI50,HT-29,> 100 µM (inactive)
same,GI50,DU-145,> 100 µM (inactive)
same,GI50,SW-620,> 100 µM (inactive)
same,GI50,NCI-H23,> 100 µM (inactive)
same,GI50,T47D,> 100 µM (inactive)
same,GI50,A549,> 100 µM (inactive)
same,GI50,SF-539,> 100 µM (inactive)
same,GI50,SK-MEL-2,> 100 µM (inactive)
same,GI50,HCT-15,> 100 µM
same,GI50,BT-549,> 100 µM (inactive)
same,GI50,OVCAR-4,> 100 µM (inactive)
same,GI50,NCI-H522,> 100 µM (inactive)
same,GI50,UACC-257,> 100 µM (inactive)
same,GI50,OVCAR-8,> 100 µM (inactive)
same,GI50,RXF 393,22.6 µM (inactive)
same,GI50,SF-268,> 100 µM (inactive)
same,GI50,HOP-62,> 100 µM (inactive)
same,GI50,HCC 2998,63.4 µM (inactive)
same,GI50,SR,> 100 µM (inactive)
same,GI50,MOLT-4,> 100 µM (inactive)
same,GI50,SK-OV-3,> 100 µM (inactive)
same,GI50,OVCAR-5,> 100 µM (inactive)
same,GI50,EKVX,> 100 µM (inactive)
same,GI50,HCT-116,> 100 µM (inactive)
same,GI50,MDA-MB-231,> 100 µM (inactive)
same,GI50,HL-60,46.8 µM (inactive)
same,GI50,SK-MEL-5,> 100 µM (inactive)
same,GI50,UO-31,41.4 µM (inactive)
same,GI50,Malme-3M,64.1 µM (inactive)
same,GI50,ACHN,> 100 µM (inactive)
same,GI50,COLO 205,> 100 µM (inactive)
same,GI50,Hs-578T,> 100 µM (inactive)
same,GI50,PC-3,> 100 µM (inactive)
same,GI50,HOP-92,73.1 µM (inactive)
same,GI50,U-251,> 100 µM (inactive)
same,GI50,UACC-62,> 100 µM (inactive)
same,GI50,NCI-H226,> 100 µM (inactive)
same,GI50,SNB-19,> 100 µM (inactive)
same,GI50,CAKI-1,> 100 µM (inactive)
same,GI50,786-0,> 100 µM (inactive)
same,GI50,OVCAR-3,> 100 µM (inactive)
same,GI50,NCI-H460,> 100 µM (inactive)
same,GI50,SNB-75,55.8 µM (inactive)
same,GI50,A498,> 100 µM (inactive)
same,GI50,M14,> 100 µM (inactive)
same,GI50,NCI/ADR-RES,> 100 µM (inactive)
same,GI50,SF-295,> 100 µM (inactive)
same,GI50,KM12,> 100 µM (inactive)
same,GI50,MDA-MB-435,> 100 µM (inactive)
CCCCCCOC(=O)C(N)Cc1ccc(OC)cc1 (centres undefined),GI50,TK-10,> 100 µM (inactive)
same,GI50,HT-29,> 100 µM (inactive)
same,GI50,DU-145,> 100 µM (inactive)
same,GI50,SW-620,> 100 µM (inactive)
same,GI50,NCI-H23,> 100 µM (inactive)
same,GI50,IGROV-1,> 100 µM (inactive)
same,GI50,T47D,> 100 µM (inactive)
same,GI50,CCRF-CEM,26.6 µM (inactive)
same,GI50,A549,> 100 µM (inactive)
same,GI50,SF-539,> 100 µM (inactive)
same,GI50,SK-MEL-2,> 100 µM (inactive)
same,GI50,HCT-15,> 100 µM
same,GI50,BT-549,> 100 µM (inactive)
same,GI50,OVCAR-4,> 100 µM (inactive)
same,GI50,NCI-H522,> 100 µM (inactive)
same,GI50,UACC-257,> 100 µM (inactive)
same,GI50,OVCAR-8,> 100 µM (inactive)
same,GI50,MCF7,> 100 µM (inactive)
same,GI50,RXF 393,> 100 µM (inactive)
same,GI50,SF-268,> 100 µM (inactive)
same,GI50,HOP-62,> 100 µM (inactive)
same,GI50,SR,> 100 µM (inactive)
same,GI50,MOLT-4,> 100 µM (inactive)
same,GI50,SK-OV-3,> 100 µM (inactive)
same,GI50,SK-MEL-28,> 100 µM (inactive)
same,GI50,OVCAR-5,> 100 µM (inactive)
same,GI50,EKVX,> 100 µM (inactive)
same,GI50,HCT-116,> 100 µM (inactive)
same,GI50,MDA-MB-231,> 100 µM (inactive)
same,GI50,HL-60,> 100 µM (inactive)
same,GI50,SK-MEL-5,> 100 µM (inactive)
same,GI50,K562,> 100 µM (inactive)
same,GI50,LOX IMVI,> 100 µM (inactive)
same,GI50,UO-31,> 100 µM (inactive)
same,GI50,SN12C,> 100 µM (inactive)
same,GI50,Malme-3M,> 100 µM (inactive)
same,GI50,ACHN,> 100 µM (inactive)
same,GI50,COLO 205,> 100 µM (inactive)
same,GI50,Hs-578T,> 100 µM (inactive)
same,GI50,PC-3,> 100 µM (inactive)
same,GI50,HOP-92,5.55 µM (inactive)
same,GI50,U-251,> 100 µM (inactive)
same,GI50,UACC-62,> 100 µM (inactive)
same,GI50,NCI-H226,> 100 µM (inactive)
same,GI50,SNB-19,> 100 µM (inactive)
same,GI50,CAKI-1,> 100 µM (inactive)
same,GI50,786-0,> 100 µM (inactive)
same,GI50,OVCAR-3,> 100 µM (inactive)
same,GI50,NCI-H460,> 100 µM (inactive)
same,GI50,SNB-75,> 100 µM (inactive)
same,GI50,M14,> 100 µM (inactive)
same,GI50,NCI/ADR-RES,> 100 µM (inactive)
same,GI50,SF-295,> 100 µM (inactive)
same,GI50,KM12,> 100 µM (inactive)
same,GI50,MDA-MB-435,> 100 µM (inactive)
